# Experimental data from patent US9593149B2, “Amylin and calcitonin receptor agonist” (Novo Nordisk A/S, priority 2014, dated 2017).
# Numbered stars: 1 amine (or outer) side, 2 acyl side, 3 side chain; on linkers, the order of the positions; unused ones are H or OH. Peptide text beside a SMILES is read from it. * marks the point of attachment. C20 diacid = O=C(O)CCCCCCCCCCCCCCCCCCC(=O)*; C18 diacid = O=C(O)CCCCCCCCCCCCCCCCC(=O)*; γGlu = O=C(O)[C@H](CCC(=O)[*:2])N[*:1]
# Tests used:
# [1] = Assay (IV) determination of solubility; format: physicochemical
# Protocol: Assay (IV)—Determination of Solubility
# The mimylin peptide was dissolved in water at ˜500 nmol/ml and mixed 1:1 with a series of buffers (100 mM glycylglycine pH 3.0, 100 mM glycylglycine pH 4.0, 100 mM glycylglycine pH 5.0, 100 mM bistrispropane pH 6.0, 100 mM bistrispropane pH 6.5, 100 mM bistrispropane pH 7.0, 100 mM bistrispropane pH 7.5, 100 mM bistrispropane pH 8.0).
# [2] = Assay (IX) pK, T½ in mini-pig; format: in vivo, Göttingen mini-pigs; settings: i.v.
# Protocol: Assay (IX)—pK—Determination of T½ in Mini-Pig
# Pharmacokinetic (PK) studies in Göttingen mini-pigs were conducted in order to determine the T½ of the mimylin compound according to the Examples as indicated after i.v. administration.
# T½ values of the amylin analogues of the invention is determined by pharmacokinetic studies in female Göttingen mini-pigs from Ellegaard Göttingen Minipigs ApS and the principles of laboratory animal care are followed.
# An acclimatisation period of approximately 6-10 days was allowed before the animals entered the study. At start of the acclimatisation period the mini-pigs were about 5 to 12 months old and in the weight range of 15-35 kg. The mini-pigs had two central venous catheters inserted which were used for blood sampling.
# The studies were conducted in an animal room which was illuminated to give a cycle of approximately 12 hours light and 12 hours darkness. The animals were housed individually. The animals had free access to domestic quality drinking water during the study, and no food restrictions applied for PK studies. The animals were weighed on arrival and on the days of dosing.
# In the present studies the test substances were administered intravenously in approximately 5 nmol/kg dose. The animals received a single intravenous injection in one central venous catheter and blood sampling was performed from the other catheter, where possible. Each test substance was given to typically three but in some cases two or four animals.
# A full plasma concentration-time profile, employing 12-16 sampling points, was obtained from each animal. In example blood samples were collected according to the following schedule:
# After Intravenous Administration:
# Pre-dose (0), 0.5, 1, 2, 4, 6, 8, 12, 24, 48, 72, 96, 120, 168 and 240 hours after injection. In some cases also additional blood samples up to 288 hours post injection were taken.
# At each sampling time, 0.5 to 2 ml of blood was drawn from each animal. The blood samples were taken via the central venous catheter.
# The 0.8 mL blood samples were collected into EDTA test tubes (8 mM EDTA). Blood samples were kept on ice for max 20 min. before centrifugation. Plasma was separated using centrifugation (i.e. at 4° C., 10 min., 2000G) and was immediately transferred to Micronic tubes on dry ice. Approximately 200 μl plasma was transferred to each Micronic tube. The plasma was stored at −20° C. until assayed. The plasma samples were assayed for the content of compound using LCMS.
# The plasma concentration-time profiles were analysed by a non-compartmental pharmacokinetic analysis (NCA) using Phoenix WinNonlin 6.3 (Pharsight Inc., Mountain View, Calif., USA). NCA was performed using the individual plasma concentration-time profiles from each animal. T½ is the terminal half-life=In2/λz and was determined from λz, the first order rate constant associated with the terminal (log-linear) portion of the curve, estimated by linear regression of time vs. log concentration.
# MS-Method for Amylin and Mimylin Quantification
# 40 μl plasma is diluted with 120 μl 66.67% EtOH+1% HCOOH and mixed. Centrifuged for 20 min. at 13000 rpm, 4° C. The supernatant is analyzed by an LC-MS method on a Sciex API 3000 and quantitated with a standard made up in plasma
SMILES,Solubility ([1]; pH 3.0),Solubility ([1]; pH 4.0),Solubility ([1]; pH 5.0),Solubility ([1]; pH 6.0),Solubility ([1]; pH 6.5),Solubility ([1]; pH 7.0),Solubility ([1]; pH 7.5),Solubility ([1]; pH 8.0),PK mini pig iv T½ [2] [h],solubility at 18 h ([1]; pH 5.0) [µM]
"CC(C)C[C@H](NC(=O)[C@H](C)NC(=O)[C@H](C)NC(=O)[C@@H](NC(=O)[C@H](CO)NC(=O)[C@H](CC(C)C)NC(=O)[C@H](CCC(=O)O)NC(=O)[C@H](CO)NC(=O)[C@H](C)NC(=O)[C@H](CCC(=O)O)NC(=O)CCCCCCCCCCCCCCCCCCC(=O)O)[C@@H](C)O)C(=O)NCC(=O)N[C@@H](CCCNC(=N)N)C(=O)N[C@@H](CC(C)C)C(=O)N[C@@H](CO)C(=O)N[C@@H](C)C(=O)N[C@@H](CCC(=O)O)C(=O)N[C@@H](CC(C)C)C(=O)N[C@@H](Cc1cnc[nH]1)C(=O)N[C@@H](CCC(=O)O)C(=O)N[C@@H](CC(C)C)C(=O)N[C@@H](C)C(=O)N[C@H](C(=O)N[C@@H](CC(C)C)C(=O)N1CCC[C@H]1C(=O)N[C@@H](CCCNC(=N)N)C(=O)N[C@H](C(=O)N[C@@H](CCC(=O)O)C(=O)N[C@H](C(=O)NCC(=O)N[C@@H](CO)C(=O)NCC(=O)N[C@@H](CO)C(=O)N1CCC[C@H]1C(N)=O)[C@@H](C)O)[C@@H](C)O)[C@@H](C)O [compound 22, [N-terminal(C20 diacid), 30S, 31G]mimylin] ({C20 diacid}-EASELSTAALGRLSAELHELATLPRTETGSGSP-NH2)",≧200 μM,≧200 μM,≧200 μM,≧200 μM,≧200 μM,≧200 μM,≧200 μM,≧200 μM,108,
"CC(C)C[C@H](NC(=O)[C@H](CCCNC(=N)N)NC(=O)CNC(=O)[C@H](CC(C)C)NC(=O)[C@@H](NC(=O)[C@H](C)NC(=O)[C@@H](NC(=O)[C@H](CO)NC(=O)[C@H](CC(C)C)NC(=O)[C@H](CCC(N)=O)NC(=O)[C@H](CO)NC(=O)[C@H](C)NC(=O)CC[C@H](NC(=O)CCCCCCCCCCCCCCCCCCC(=O)O)C(=O)O)[C@@H](C)O)C(C)C)C(=O)N[C@@H](CO)C(=O)N[C@@H](CCC(N)=O)C(=O)N[C@@H](CCC(=O)O)C(=O)N[C@@H](CC(C)C)C(=O)N[C@@H](Cc1cnc[nH]1)C(=O)N[C@@H](CCC(=O)O)C(=O)N[C@@H](CC(C)C)C(=O)N[C@@H](CCC(N)=O)C(=O)N[C@H](C(=O)N[C@@H](Cc1ccc(O)cc1)C(=O)N1CCC[C@H]1C(=O)N[C@@H](CCCNC(=N)N)C(=O)N[C@H](C(=O)N[C@@H](CCC(=O)O)C(=O)N[C@H](C(=O)NCC(=O)N[C@@H](CO)C(=O)N[C@@H](CCC(N)=O)C(=O)N[C@H](C(=O)N[C@@H](Cc1ccc(O)cc1)C(N)=O)[C@@H](C)O)[C@@H](C)O)[C@@H](C)O)[C@@H](C)O [compound 116, [N-terminal(C20 diacid-gGlu), des1, 4Q, 9V, 15Q, 21Q, 23Y, 30S, 31Q, 32T, 33Y]mimylin] ({C20 diacid-γGlu}-ASQLSTAVLGRLSQELHELQTYPRTETGSQTY-NH2)",≧200 μM,≧200 μM,,≧200 μM,≧200 μM,≧200 μM,≧200 μM,≧200 μM,87,32
"CC(C)C[C@H](NC(=O)[C@H](CCC(=O)O)NC(=O)[C@H](Cc1cnc[nH]1)NC(=O)[C@H](CC(C)C)NC(=O)[C@H](CCC(=O)O)NC(=O)[C@H](C)NC(=O)[C@H](CO)NC(=O)[C@H](CC(C)C)NC(=O)[C@H](CCCNC(=N)N)NC(=O)CNC(=O)[C@H](CC(C)C)NC(=O)[C@@H](NC(=O)[C@H](C)NC(=O)[C@@H](NC(=O)[C@H](CO)NC(=O)[C@H](CC(C)C)NC(=O)[C@H](CCC(=O)O)NC(=O)[C@H](CO)NC(=O)[C@H](C)NC(=O)[C@H](CCC(=O)O)NC(=O)CCCCCCCCCCCCCCCCC(=O)O)[C@@H](C)O)C(C)C)C(=O)N[C@@H](C)C(=O)N[C@H](C(=O)N[C@@H](CC(C)C)C(=O)N1CCC[C@H]1C(=O)N[C@@H](CCCNC(=N)N)C(=O)N[C@H](C(=O)N[C@@H](CCC(=O)O)C(=O)N[C@H](C(=O)NCC(=O)N1CCC[C@H]1C(=O)N[C@@H](CCC(=O)O)C(=O)N[C@@H](CO)C(=O)N1CCC[C@H]1C(N)=O)[C@@H](C)O)[C@@H](C)O)[C@@H](C)O [compound 9, [N-terminal(C18 diacid), 9V]mimylin] ({C18 diacid}-EASELSTAVLGRLSAELHELATLPRTETGPESP-NH2)",≧200 μM,≧200 μM,≧200 μM,≧200 μM,≧200 μM,≧200 μM,≧200 μM,≧200 μM,90,
"CC(C)C[C@H](NC(=O)[C@H](C)NC(=O)[C@H](C)NC(=O)[C@@H](NC(=O)[C@H](CO)NC(=O)[C@H](CC(C)C)NC(=O)[C@H](CCC(=O)O)NC(=O)[C@H](CO)NC(=O)[C@H](C)NC(=O)[C@H](CCC(=O)O)NC(=O)CCCCCCCCCCCCCCCCC(=O)O)[C@@H](C)O)C(=O)NCC(=O)N[C@@H](CCCNC(=N)N)C(=O)N[C@@H](CC(C)C)C(=O)N[C@@H](CO)C(=O)N[C@@H](C)C(=O)N[C@@H](CCC(=O)O)C(=O)N[C@@H](CC(C)C)C(=O)N[C@@H](Cc1cnc[nH]1)C(=O)N[C@@H](CCC(=O)O)C(=O)N[C@@H](CC(C)C)C(=O)N[C@@H](C)C(=O)N[C@H](C(=O)N[C@@H](CC(C)C)C(=O)N1CCC[C@H]1C(=O)N[C@@H](CCCNC(=N)N)C(=O)N[C@H](C(=O)N[C@@H](CCC(=O)O)C(=O)N[C@H](C(=O)NCC(=O)N[C@@H](CO)C(=O)NCC(=O)N[C@@H](CO)C(=O)N1CCC[C@H]1C(N)=O)[C@@H](C)O)[C@@H](C)O)[C@@H](C)O [compound 21, [N-terminal(C18 diacid), 30S, 31G]mimylin] ({C18 diacid}-EASELSTAALGRLSAELHELATLPRTETGSGSP-NH2)",≧200 μM,≧200 μM,≧200 μM,≧200 μM,≧200 μM,≧200 μM,≧200 μM,≧200 μM,118,
"CC(C)C[C@H](NC(=O)[C@H](C)NC(=O)[C@H](C)NC(=O)[C@@H](NC(=O)[C@H](CO)NC(=O)[C@H](CC(C)C)NC(=O)[C@H](CCC(=O)O)NC(=O)[C@H](CO)NC(=O)[C@H](C)NC(=O)CC[C@H](NC(=O)CCCCCCCCCCCCCCCCCCC(=O)O)C(=O)O)[C@@H](C)O)C(=O)NCC(=O)N[C@@H](CCCNC(=N)N)C(=O)N[C@@H](CC(C)C)C(=O)N[C@@H](CO)C(=O)N[C@@H](C)C(=O)N[C@@H](CCC(=O)O)C(=O)N[C@@H](CC(C)C)C(=O)N[C@@H](Cc1cnc[nH]1)C(=O)N[C@@H](CCC(=O)O)C(=O)N[C@@H](CC(C)C)C(=O)N[C@@H](C)C(=O)N[C@H](C(=O)N[C@@H](CC(C)C)C(=O)N1CCC[C@H]1C(=O)N[C@@H](CCCNC(=N)N)C(=O)N[C@H](C(=O)N[C@@H](CCC(=O)O)C(=O)N[C@H](C(=O)NCC(=O)N[C@@H](CO)C(=O)NCC(=O)N[C@@H](CO)C(=O)N1CCC[C@H]1C(N)=O)[C@@H](C)O)[C@@H](C)O)[C@@H](C)O [Ex. #40, [N-terminal(C20 diacid-gGlu), des1, 30S, 31G]mimylin] ({C20 diacid-γGlu}-ASELSTAALGRLSAELHELATLPRTETGSGSP-NH2)",≧200 μM,≧200 μM,≧200 μM,≧200 μM,≧200 μM,≧200 μM,≧200 μM,≧200 μM,171,
